Among the data in ChEMBL document CHEMBL1152270, “Cobalt-alkyne complexes with imidazoline ligands as estrogenic carriers: synthesis and pharmacological investigations” (J Med Chem, 2008) are EC50 and Activity values, retold here.

The structures appear in SMILES notation. Calls of active or inactive are those of the source. No cut-off for these calls is given here.

In experiment [1] the target is T1, Estrogen receptor (Homo sapiens, UniProt P03372).
T1 sequence (P03372 whole entry): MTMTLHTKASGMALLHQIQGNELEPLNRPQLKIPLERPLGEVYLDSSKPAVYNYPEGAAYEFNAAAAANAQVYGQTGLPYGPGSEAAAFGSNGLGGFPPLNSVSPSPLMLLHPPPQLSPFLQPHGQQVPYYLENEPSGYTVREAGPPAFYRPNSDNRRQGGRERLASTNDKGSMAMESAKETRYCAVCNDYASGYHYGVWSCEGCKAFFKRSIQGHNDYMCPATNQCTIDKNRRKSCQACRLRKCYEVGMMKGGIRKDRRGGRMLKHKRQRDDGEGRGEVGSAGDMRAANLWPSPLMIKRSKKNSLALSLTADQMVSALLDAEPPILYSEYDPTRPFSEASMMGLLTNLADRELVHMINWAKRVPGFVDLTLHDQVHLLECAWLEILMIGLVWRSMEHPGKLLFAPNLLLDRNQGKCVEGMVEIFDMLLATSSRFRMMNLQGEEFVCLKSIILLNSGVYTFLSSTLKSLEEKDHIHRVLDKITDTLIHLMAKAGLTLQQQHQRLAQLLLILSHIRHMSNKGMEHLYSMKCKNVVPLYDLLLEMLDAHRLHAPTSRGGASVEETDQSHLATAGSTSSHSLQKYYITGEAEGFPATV
Description: Transactivation of ERalpha in human MCF7-2a cells assessed as luciferase reporter gene expression. Type of experiment: cell-based. In general terms: In a reporter assay the amount or activity of a reporter protein is the signal.

Experiment [2] relates to MCF7. Description: Antiproliferative activity against human MCF7 cells. The experiment is classed as functional, cell-based.
For experiment [3], the system named is MDA-MB-231. The experiment in a line: Antiproliferative activity against human MDA-MB-231 cells. The experiment is classed as functional, cell-based.
In experiment [4] the target is T2, Estrogen receptor (Homo sapiens) (UniProt P03372).
T2 sequence (whole entry): T1 sequence (P03372 whole entry)
Description: Transactivation of ERalpha in human MCF7-2a cells assessed as luciferase reporter gene expression at 1 uM relative to estradiol. Type of experiment: cell-based.

For `C#CCN1C=NC(c2ccc(O)cc2Cl)C1c1ccc(O)cc1Cl` (stereo unspecified), in experiment [1], the EC50 (in general, the concentration needed to bring the measured effect to its halfway point) was 0.01 µM. For the same molecule, the outcome in experiment [2] and in experiment [3] was inactive.

`C#CCN1C=NC(c2ccc(OC)cc2Cl)C1c1ccc(OC)cc1Cl` (stereo unspecified): in experiment [4], the Activity stood at 13%. For the same molecule, the outcome in experiment [2] and in experiment [3] was inactive.
